Assays:
[1] = cited from earlier work
[2] = Phase I bioavailability study, single dose and steady state; conditions: carisoprodol, any condition
Experimental: Sixty healthy male volunteers participated in the study and were divided into four treatment groups. […] The study was prospective, single-blind, parallel, longitudinal, and comparative with a placebo and with the components of the combination administered separately, with randomized distribution into 4 groups.
A pharmacokinetic study was conducted on day 1 and day 14 so that bioavailability could be clearly identified for single dose and for multiple doses, and so that the bioequivalence of the combined product could be compared to the individual products.

[3] = in vivo
[4] = test system: platelet aggregation induced by collagen or arachidonic acid; conditions: cited from earlier work
[5] = cited from earlier work; remark: listed apart in the source
[6] = test system: functional recovery of patients with a sprained ankle; test: Phase II functional recovery
plasma proteins = conditions: cited from earlier work
[7] = test system: production of thromboxane in platelets; conditions: cited from earlier work
[8] = test system: pain produced by a sprained ankle; test: Phase II evaluation of pain by visual analogue scale (VAS); assay type: in vivo, human; conditions: for time from administration to analgesic effect (VAS, significant versus placebo): carisoprodol 200 mg / meloxicam 15 mg, sprained ankle

SMILES: CCCC(C)(COC(N)=O)COC(=O)NC(C)C (stereo not shown) [Carisoprodol]
- half-life ([1]; in vivo): 8 h
- time of initial musculoskeletal relaxant effect ([1]; in vivo): 30 to 45 min
- bioequivalence, combined versus on its own [2]: no bioequivalence in any condition
- blood pressure [3]: decrease in blood pressure
- changes in the physiological tests (reaction time, awareness) [3]: did not produce any changes
- sedative effect: MINIMENTAL test before versus after administration [3]: no significant differences

SMILES: Cc1cnc(NC(=O)C2=C(O)c3ccccc3S(=O)(=O)N2C)s1 [Meloxicam, 4-hydroxy-2-methyl-N-(5-methyl-2-thiazolyl)-2H-1,2-benzothiazine-3-carboxamide-1,1-dioxide]
- time of second maximum concentration peak ([1]; after administration, enterohepatic circulation): 12 to 14 h
- time to steady state ([1]; days of dosage): 5 days
- effect of food intake on absorption ([1]; in vivo): not altered
- absorbed after administration ([1]; orally): 89%
- inhibition of platelet aggregation [4]: does not inhibit
- solubility in methanol ([5]; methanol): very slightly soluble
- solubility in strong acids and bases ([5]; strong acids and bases): higher solubility
- solubility in water ([5]; water): practically insoluble in water
- p versus placebo, functional recovery ([6]; 1440 minutes): 0.037
- time at which functional recovery is statistically different from placebo ([6]; in vivo): 24 h
- time from administration to functional recovery (significant versus placebo) ([6]; sprained ankle): 1440 min
- bound to plasma proteins (plasma proteins): 99.5%
- production of thromboxane in platelets [7]: significantly reduce
- time from administration to analgesic effect (VAS, significant versus placebo) [8]: up to 360 minutes
- time from administration to analgesic effect (VAS, significant versus placebo) ([8]; listed as meloxicam): 360 min
- p versus placebo, VAS ([8]; minute 360): 0.021
